Assay [1] deals with T1, Full length DGKζ (in-house protein M1-V929) (Homo sapiens, UniProt Q13574).
T1 construct: His (N); TEV site (N); made in house; host or cells: Sf9 insect cells (Bac-to-Bac baculovirus)
The assay is described as follows: Biochemical DGK IC50 assay (ADP-Glo, lipid micelle substrate), DGKζ. The following applies: 1 hour preincubation, 1 hour reaction, room temperature. As to the method:
(§1) Enzymatic reactions of DGKζ, DGKα and DGKδ were performed using ADP-Glo assay with lipid micelle substrate. […] Full length DGKα (D21-10BG, SignalChem) and full length DGKδ (D23-10G, SignalChem) were purchased. Lipid micelle was prepared by dissolving DAG (Sigma, 317505-10 MG) and PS (Sigma, P7769-100 MG) with chloroform which was furtherly removed by rotary evaporation. The obtained residue was resuspended in buffer containing 25 mM HEPES pH 7.0, 0.5 mM EDTA and 160 mM Octyl β-D glucopyranoside by vigorous mixing and ultrasonic (IID, Scientz).
(§2) The inhibition activities testing for the compound disclosed herein were carried out at room temperature in assay buffer containing 50 mM HEPES, 10 mM MgCl2, 0.01% BSA, 0.1 mM Na3VO4, 0.005% Tween-20 and 0.01 mM CaCl2). Compounds in DMSO were dispensed into wells of a black 384 well plate (Corning 4514) using D300e digital dispenser (Tecan). […] 3 μL 2× enzyme solution was added to wells. […] After 1 hour reaction, 5 μL ADP-Glo reagent (Promga V9101) was added and incubated for 40 minutes. 10 μL Kinase Detection reagent was added and incubated for 30 minutes. Luminescence was measured on a microplate reader (PHERAstar FSX, BMG labtech). The IC50S are calculated based on inhibition of enzyme activity in the presence of increasing concentrations of compounds.
Human His-TEV-DGK-zeta-pFastBac1 and human baculovirus samples was generated using the Bac- to -Bac baculovirus expression system (Invitrogen) according to the manufacturer's protocol. The DNA used for expression of DGK-zeta, have SEQ ID Nos: 1. Baculovirus amplification was achieved using infected SF9 cells at 1:2000 virus/cells ratios, and grown for 96 hours at 27° C. post-transfected.
The expression scaled up for each protein was carried out in the […] from CORNING. 4 L of 3×10^6 cells/mL Sf9 cells (Expression System, Invitrogen) grown in SF900™ II SFM insect medium (Expression System) was infected with virus stock at 1:200 virus/cells ratio, and grown for 48 hours at 27° C. post-transfection. The infected cell culture was harvested by centrifugation at 6000 rpm for 15 min 4° C. in a SORVALL LYNX6000 centrifuge. The cell pellets were stored at −80° C.
Full length human DGKζ produced as described above, was purified from Sf9 baculovirus-infected insect cell paste. The cells were lysed using sonication method, and the lysates were clarified by centrifugation.

The target of assay [2] is T2, Full length DGKα (D21-10BG, SignalChem) (Homo sapiens, UniProt P23743).
T2 construct: Full length DGKα (D21-10BG, SignalChem); purchased SignalChem D21-10BG
T2 sequence (P23743 whole entry): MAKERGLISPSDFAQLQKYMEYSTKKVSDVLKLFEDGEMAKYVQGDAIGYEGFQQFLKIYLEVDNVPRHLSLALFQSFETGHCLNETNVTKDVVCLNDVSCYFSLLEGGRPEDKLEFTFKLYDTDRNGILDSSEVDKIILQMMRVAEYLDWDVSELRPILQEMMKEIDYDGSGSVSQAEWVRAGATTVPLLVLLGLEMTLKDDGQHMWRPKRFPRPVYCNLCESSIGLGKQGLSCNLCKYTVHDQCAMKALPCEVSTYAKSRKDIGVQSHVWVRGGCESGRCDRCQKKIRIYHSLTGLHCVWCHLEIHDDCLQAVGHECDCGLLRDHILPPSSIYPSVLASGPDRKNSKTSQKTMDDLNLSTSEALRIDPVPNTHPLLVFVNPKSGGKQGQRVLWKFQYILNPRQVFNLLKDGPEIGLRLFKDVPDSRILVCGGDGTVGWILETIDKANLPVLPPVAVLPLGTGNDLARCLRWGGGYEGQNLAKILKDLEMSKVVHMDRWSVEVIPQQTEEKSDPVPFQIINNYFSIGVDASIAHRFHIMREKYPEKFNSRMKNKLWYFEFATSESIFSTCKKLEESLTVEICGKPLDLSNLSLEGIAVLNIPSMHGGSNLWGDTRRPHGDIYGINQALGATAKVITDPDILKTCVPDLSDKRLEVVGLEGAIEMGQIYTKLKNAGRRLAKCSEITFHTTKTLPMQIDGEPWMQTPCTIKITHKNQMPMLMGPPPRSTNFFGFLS
The assay is described as follows: Biochemical DGK IC50 assay (ADP-Glo, lipid micelle substrate), DGKα. The following applies: 1 hour preincubation, 1 hour reaction, room temperature. The procedure: as §1, §2
A general note: ADP-Glo first removes unused ATP, then detects ADP through luciferase.

A value given as a limit tells only on which side of the number the result lay.

T1 sequence (Q13574 1-929 isoform Q13574-4): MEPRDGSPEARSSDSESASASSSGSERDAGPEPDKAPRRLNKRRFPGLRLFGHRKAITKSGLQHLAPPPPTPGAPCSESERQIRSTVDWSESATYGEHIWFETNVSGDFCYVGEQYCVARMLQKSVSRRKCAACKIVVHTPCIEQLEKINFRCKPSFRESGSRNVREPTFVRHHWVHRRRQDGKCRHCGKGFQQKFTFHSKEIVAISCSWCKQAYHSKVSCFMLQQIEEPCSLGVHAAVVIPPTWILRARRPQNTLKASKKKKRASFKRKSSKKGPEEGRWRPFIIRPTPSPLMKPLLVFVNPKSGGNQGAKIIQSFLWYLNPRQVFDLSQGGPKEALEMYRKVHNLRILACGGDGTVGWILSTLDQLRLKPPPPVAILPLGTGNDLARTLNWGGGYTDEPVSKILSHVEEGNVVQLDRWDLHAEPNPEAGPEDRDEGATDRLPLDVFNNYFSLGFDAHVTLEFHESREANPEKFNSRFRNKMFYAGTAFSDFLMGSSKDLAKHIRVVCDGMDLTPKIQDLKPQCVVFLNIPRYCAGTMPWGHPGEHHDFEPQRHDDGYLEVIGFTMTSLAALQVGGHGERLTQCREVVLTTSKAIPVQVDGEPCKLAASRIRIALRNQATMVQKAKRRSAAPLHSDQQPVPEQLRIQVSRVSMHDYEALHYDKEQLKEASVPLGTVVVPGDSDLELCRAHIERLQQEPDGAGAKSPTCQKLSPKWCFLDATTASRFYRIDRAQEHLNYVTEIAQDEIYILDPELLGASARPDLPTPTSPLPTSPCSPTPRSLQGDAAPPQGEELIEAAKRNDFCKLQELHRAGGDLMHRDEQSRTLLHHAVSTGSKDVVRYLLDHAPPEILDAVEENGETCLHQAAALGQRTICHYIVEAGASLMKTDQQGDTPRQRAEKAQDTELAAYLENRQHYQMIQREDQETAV

Take `CCn1c(CC#N)nc2c(N3C[C@@H](C)N(C(C)c4csc(C(F)(F)F)n4)C[C@@H]3C)nc(=O)n(C)c21` (stereo partly drawn) [Compound A104, 2-(6-((2S,5R)-2,5-dimethyl-4-(1-(2-(trifluoromethyl)thiazol-4-yl)ethyl)piperazin-1-yl)-9-ethyl-3-methyl-2-oxo-3,9-dihydro-2H-purin-8-yl)acetonitrile]: the IC50 – broadly, the concentration at which inhibition is half-maximal – in assay [1] was 0.839 µM; in assay [2], > 150 µM.
With `CC#CCc1nc2c(N3C[C@@H](CC)N(C(C)c4ccc(C(F)(F)F)cc4)C[C@@H]3CC)nc(=O)n(C)c2n1C` (stereo partly drawn) [Compound A152, 8-(but-2-yn-1-yl)-6-((2S,5R)-2,5-diethyl-4-(1-(4-(trifluoromethyl)phenyl)ethyl)piperazin-1-yl)-3,9-dimethyl-3,9-dihydro-2H-purin-2-one], the IC50 in assay [1] is 0.707 µM; in assay [2], 2.69 µM.
For `CCn1c(CC#N)nc2c(N3C[C@@H](C)N(C(C)c4cc5c(cc4F)OCC(C)(C)O5)C[C@@H]3C)nc(=O)n(C)c21` (single isomer, unassigned) [Compound A157a] the same measures were 0.028 µM and 11.6 µM.
For `CCn1c(CC#N)nc2c(N3C[C@@H](C)N(C(C)c4ccc(CN5CCOCC5)cc4)C[C@@H]3C)nc(=O)n(C)c21` (stereo partly drawn) [Compound A139, 2-(6-((2S,5R)-2,5-dimethyl-4-(1-(4-(morpholinomethyl)phenyl)ethyl)piperazin-1-yl)-9-ethyl-3-methyl-2-oxo-3,9-dihydro-2H-purin-8-yl)acetonitrile], the results for the IC50 in assay [1] and in assay [2] were 2.19 µM and 120 µM, respectively.
Taken in the same sequence, the figures for `CC(c1ccc2c(c1)OCCO2)N1C[C@H](C)N(c2c(F)c(=O)n(C)c3c2nc(CC#N)n3C)C[C@H]1C` (single isomer, unassigned) [Compound A18b] were 0.032 µM and 6.38 µM.
For the compound `CCn1c(CC#N)nc2c(N3C[C@@H](C)N(C(=O)c4ccc5c(n4)C(C)(C)CO5)C[C@@H]3C)nc(=O)n(C)c21` [Compound A182, 2-(6-((2S,5R)-4-(3,3-dimethyl-2,3-dihydrofuro[3,2-b]pyridine-5-carbonyl)-2,5-dimethylpiperazin-1-yl)-9-ethyl-3-methyl-2-oxo-3,9-dihydro-2H-purin-8-yl)acetonitrile], the figures for the IC50 in assay [1] and in assay [2] were 0.499 µM and > 150 µM, respectively.
For `CCn1c(CC#N)nc2c(N3C[C@@H](C)N(C(C)c4ccc5c(c4)OC(C)(C)O5)C[C@@H]3C)nc(=O)n(C)c21` (single isomer, unassigned) [Compound A85a] the same measures were 1.25 µM and 148 µM.
In the case of `CC(c1ccc2c(c1)OC(F)(F)O2)N1C[C@H](C)N(c2nc(=O)n(C)c3c2nc(CC#N)n3C)C[C@H]1C` (stereo partly drawn) [Compound A167, 2-(6-((2S,5R)-4-(1-(2,2-difluorobenzo[d][1,3]dioxol-5-yl)ethyl)-2,5-dimethylpiperazin-1-yl)-3,9-dimethvl-2-oxo-3,9-dihydro-2H-purin-8-yl)acetonitrile], the values for the IC50 in assay [1] and in assay [2] were 0.09 µM and 19 µM, respectively.
`CC(c1ccc(C(F)(F)F)cn1)N1C[C@H](C)N(c2nc(=O)n(C)c3c2nc(CC#N)n3C)C[C@H]1C` (single isomer, unassigned) [Compound A148a]: the IC50 in assay [1] came out at 1.1 µM; in assay [2], 3.63 µM.
For `CCn1c(CC#N)nc2c(N3C[C@@H](C)N(C(C)c4ccc5c(c4)OC(C)(C)O5)C[C@@H]3C)nc(=O)n(C)c21` (mixture of isomers) [Compound A85, 2-(6-((2S,5R)-4-(1-(2,2-dimethylbenzo[d][1,3]dioxol-5-yl)ethyl)-2,5-dimethylpiperazin-1-yl)-9-ethyl-3-methyl-2-oxo-3,9-dihydro-2H-purin-8-yl)acetonitrile] the same measures were 0.025 µM and 103 µM.
On to `CC(c1ccc2c(c1)OC(C)(C)CO2)N1C[C@H](C)N(c2c(F)c(=O)n(C)c3c2nc(CC#N)n3C)C[C@H]1C` (single isomer, unassigned) [Compound A19b], for which the IC50 in assay [1] came to 0.082 µM; in assay [2] it was 6.94 µM.
For `CCn1c(CC#N)nc2c(N3C[C@@H](C)N(C(C)c4ccc(C)cc4C(F)(F)F)C[C@@H]3C)nc(=O)n(C)c21` (stereo partly drawn) [Compound A116, 2-(6-((2S,5R)-2,5-dimethyl-4-(1-(4-methyl-2-(trifluoromethyl)phenyl)ethyl)piperazin-1-yl)-9-ethyl-3-methyl-2-oxo-3,9-dihydro-2H-purin-8-yl)acetonitrile] the same measures were 0.35 µM and > 150 µM.
For the compound `CC(c1ccc2c(c1)OC(C)(C)CO2)N1C[C@H](C)N(c2nc(=O)n(C)c3c2nc(CC#N)n3CC(F)F)C[C@H]1C` (stereo partly drawn) [Compound A87, 2-(9-(2,2-difluoroethyl)-6-((2S,5R)-4-(1-(3,3-dimethyl-2,3-dihydrobenzo[b][1,4]dioxin-6-yl)ethyl)-2,5-dimethylpiperazin-1-yl)-3-methyl-2-oxo-3,9-dihydro-2H-purin-8-yl)acetonitrile], the IC50 in assay [1] was determined as 0.002 µM; in assay [2] it was 21.9 µM.
For `CCn1c(CC#N)nc2c(N3C[C@@H](C)N(C(C)c4ccc5c(c4)C(=O)N(C)CC5)C[C@@H]3C)nc(=O)n(C)c21` (stereo partly drawn) [Compound A93, 2-(6-((2S,5R)-2,5-dimethyl-4-(1-(2-methyl-1-oxo-1,2,3,4-tetrahydroisoquinolin-7-yl)ethyl)piperazin-1-yl)-9-ethyl-3-methyl-2-oxo-3,9-dihydro-2H-purin-8-yl)acetonitrile] the same measures were 0.414 µM and > 150 µM.
For `CC(c1ccc2c(c1)OC(F)(F)C(F)(F)O2)N1C[C@H](C)N(c2nc(=O)n(C)c3c2nc(CC#N)n3C)C[C@H]1C` (mixture of isomers) [Compound A79, 2-(6-((2S,5R)-2,5-dimethyl-4-(1-(2,2,3,3-tetrafluoro-2,3-dihydrobenzo[b][1,4]dioxin-6-yl)ethyl)piperazin-1-yl)-3,9-dimethyl-2-oxo-3,9-dihydro-2H-purin-8-yl)acetonitrile], the IC50 is 0.016 µM in assay [1] and 16.4 µM in assay [2].
Turning to `CC(c1ccc2c(c1)OC(F)(F)C(F)(F)O2)N1C[C@H](C)N(c2nc(=O)n(C)c3c2nc(CC#N)n3C)C[C@H]1C` (single isomer, unassigned) [Compound A79b], the IC50 came out at 0.529 µM in assay [1] and 14.8 µM in assay [2].
`CCn1c(CC#N)nc2c(N3C[C@@H](C)N(C(C)c4ccc5c(c4)OC4(CCC4)O5)C[C@@H]3C)nc(=O)n(C)c21` (mixture of isomers) [Compound A169, 2-(6-((2S,5R)-2,5-dimethyl-4-(1-(spiro[benzo[d][1,3]dioxole-2,1′-cyclobutan]-5-yl)ethyl)piperazin-1-yl)-9-ethyl-3-methyl-2-oxo-3,9-dihydro-2H-purin-8-yl)acetonitrile]: the IC50 in assay [1] was determined as 0.031 µM; in assay [2], 28.5 µM.
Taken in the same sequence, the figures for `Cc1ccc(C(C)N2C[C@H](C)N(c3cc(=O)n(C)c4c3nc(CC#N)n4C)C[C@H]2C)cc1` (single isomer, unassigned) [Compound A5a] were 0.878 µM and 5.77 µM.
Taken in the same sequence, the figures for `CCc1nc2cc(C(C)N3C[C@H](C)N(c4nc(=O)n(C)c5c4nc(CC#N)n5CC)C[C@H]3C)ccc2s1` (mixture of isomers) [Compound A95, 2-(9-ethyl-6-((2S,5R)-4-(1-(2-ethylbenzo[d]thiazol-5-yl)ethyl)-2,5-dimethylpiperazin-1-yl)-3-methyl-2-oxo-3,9-dihydro-2H-purin-8-yl)acetonitrile] were 0.042 µM and 50.5 µM.
As for `Cc1cnc2ccc(C(C)N3C[C@H](C)N(c4nc(=O)n(C)c5c4nc(CC#N)n5C)C[C@H]3C)cc2n1` (stereo partly drawn) [Compound A49, 2-(6-((2S,5R)-2,5-dimethyl-4-(1-(3-methylquinoxalin-6-yl)ethyl)piperazin-1-yl)-3,9-dimethyl-2-oxo-3,9-dihydro-2H-purin-8-yl)acetonitrile], the IC50 came out at 0.035 µM in assay [1] and 123 µM in assay [2].
Turning to `CC[C@@H]1CN(c2nc(=O)n(C)c3c2nc(CC#N)n3C)[C@@H](C)CN1C(C)c1ccc2ncc(C)nc2c1` (single isomer, unassigned) [Compound A50a], the IC50 in assay [1] was determined as 0.004 µM; in assay [2], 24.7 µM.
Take `CC(c1ccc2nccnc2c1)N1C[C@H](C)N(c2cc(=O)n(C)c3sc(CC#N)nc23)C[C@H]1C` (single isomer, unassigned) [Compound A194b]: the IC50 in assay [1] turned out to be 0.873 µM; in assay [2], 7.02 µM.

The values above are taken from patent publication US20260125378A2, “Heterocyclic Compounds” (BeOne Medicines I GmbH, priority 2023, published 2026).
